The subject of one data set is MCF7 xenografts. Put plainly: MCF7 cell-derived xenograft (CDX) in vivo combination study. As to conditions: compound 1-1 10 mg/kg. Also noted: species or system BALB/c nude mice. As for the experimental part:
[…] (0.36 mg) pellets (Innovative Research of America Cat. No.: SE-121, pellet size: 3.0 mm) were implanted 2-3 days before cell inoculation.
(§1) Compound 1-1 was formulated every day freshly as a solution in 5% DMSO/95% (30% w/v HPβCD in water). This formulation was also used as vehicle control. Everolimus was formulated as a suspension in 1% MC (400 cps), which was prepared every 3 days.
(§2) Body weights were measured at the same time.
An approximation of drug interactions was made using the method described by Clarke (Clarke et al. 1997. Breast Cancer Res Treat. 46(2-3):255-78). This was applied to […] and can estimate interactions from limited data. In short, for compound A, B, or the combination AB (with control group C), antagonism is predicted when (AB)/C>(A/C)×(B/C), an additive effect is predicted when (AB)/C=(A/C)×(B/C), and synergistic interaction is predicted to occur when (AB)/C<(A/C)×(B/C). Calculations in Table 10B indicate that the interaction of everolimus and compound 1-1 in the MCF7 CDX model is synergistic.
17β-Estradiol (0.36 mg) pellets (Innovative Research of America Cat. No.: SE-121, pellet size: 3.0 mm) were implanted 2-3 days before cell inoculation.
(§3) Compound 1-1 was formulated every day freshly as a solution in 5% DMSO/95% (30% w/v HPβCD in water). This formulation was also used as vehicle control. Alpelisib was formulated as a solution in 20% captisol+80% water (pH adjusted to 4), which was prepared every week.

The next data set relates to CAL51 xenografts. Put plainly: CAL51 cell-derived xenograft (CDX) in vivo combination study. Details: species or system SCID Beige mice. As to conditions: compound 1-1 3 mg/kg. As for the experimental part: as §1, §2, §3
Data set [1] deals with PDX models LU5188, LU5247, LU5236, LU1508, LU5215, LU5137. Put plainly: Lung cancer patient-derived xenograft (PDX) in vivo combination study. Conditions: six lung cancer PDX models; everolimus 5 mg/kg qd p.o. Details: species or system BALB/c nude or NOD/SCID mice. As for the experimental part:
• Models: The study was conducted at Crown Bioscience with the PDX models LU5188 (small cell lung neuroendocrine carcinoma), LU5247 (non-small cell lung adenocarcinoma), LU5236 (small cell lung neuroendocrine carcinoma), LU1508 (small cell lung neuroendocrine carcinoma), LU5215 (small cell lung neuroendocrine carcinoma), and LU5137 (large cell neuroendocrine carcinoma). • Animals: BALB/c nude (LU1508) or NOD/SCID (all other models) female mice, 5-7 weeks old, weighing approximately 22-25 g, were purchased from certified vendors.
Tumor Inoculation: Fresh tumor tissues was harvest from tumor bearing mice, cut into small pieces (approximately 2-3 mm in diameter) and was kept in RPMI1640 cell culture medium at 4° C.). Lidocaine cream was applied to the PDX fragment inoculation site 1 hour before the operation. In addition, hair was removed from NOD/SCID mice before fragment implantation. Each animal was disinfected at the inoculation site with alcohol swap, PDX tumor fragments were inserted subcutaneously at the upper right dorsal flank with a trocar. The trocar was withdrawn any air bubbles under the skin were extruded.
Both compounds were administered orally.
as §2

The next data set has as its system NCI-H1836 cell line. Put plainly: CTG viability, 11x11 concentration matrix, Loewe synergy (SCLC). Conditions: inhibitor combined with compound 1-1, 11x11 matrix, 72 hours.
The test system of another data set is NCI-H1876 cell line. The data set is described as above. As to conditions: inhibitor combined with compound 1-1, 11x11 matrix, 72 hours.
The subject of another data set is NCI-H209 cell line. Described as above. As to conditions: inhibitor combined with compound 1-1, 11x11 matrix, 72 hours.
In a further data set the test system is NCI-H526 cell line. The data set is described as above. As to conditions: inhibitor combined with compound 1-1, 11x11 matrix, 72 hours.
A further data set concerns NCI-H69 cell line. The description is as above. As to conditions: inhibitor combined with compound 1-1, 11x11 matrix, 72 hours.
In a further data set the test system is DOHH-2 cell line. Put plainly: CTG viability, 11x11 concentration matrix, Loewe synergy (lymphoma). Conditions: inhibitor combined with compound 1-1, 11x11 matrix, 72 hours.
For a further data set, the system named is DB cell line. The data set is described as above. As to conditions: inhibitor combined with compound 1-1, 11x11 matrix, 72 hours.
In another data set the test system is WSU-DLCL2 cell line. Described as above. Conditions: inhibitor combined with compound 1-1, 11x11 matrix, 72 hours.
The test system of a further data set is RAJI cell line. The description is as above. As to conditions: inhibitor combined with compound 1-1, 11x11 matrix, 72 hours.
A further data set has as its system SU-DHL-6 cell line. The data set is described as above. As to conditions: inhibitor combined with compound 1-1, 11x11 matrix, 72 hours.
For another data set, the system named is MM.1S cell line. Put plainly: CTG viability, 11x11 concentration matrix, Loewe synergy (multiple myeloma). Conditions: inhibitor combined with compound 1-1, 11x11 matrix, 72 hours.
For another data set, the system named is OPM-2 cell line. The data set is described as above. Conditions: inhibitor combined with compound 1-1, 11x11 matrix, 72 hours.
The subject of the next data set is U266B1 cell line. Described as above. As to conditions: inhibitor combined with compound 1-1, 11x11 matrix, 72 hours.
For a further data set, the system named is RPMI 8226 cell line. The description is as above. Conditions: inhibitor combined with compound 1-1, 11x11 matrix, 72 hours.
For a further data set, the system named is KMS-34 cell line. Described as above. As to conditions: inhibitor combined with compound 1-1, 11x11 matrix, 72 hours.

Each structure is given as a SMILES string.

Experimental for DB cell line: (§4) Cells were cultured in the media recommended by the supplier.
(§5) On the day before compound addition, cells were seeded in 384-well-plates (white with clear flat bottom) at the densities indicated in Table 6 in 40 μL of growth medium. The next day, compounds were dispensed from 10 mM stocks using a HP D300 dispenser according to the concentration matrices described above. For each cell line, the compound concentration matrices were dispensed twice as side-by-side duplicates on one 384-well-plate. In addition, each plate contained 14 wells with only growth medium and 44 wells with cells treated with DMSO alone to calculate the average background and maximal signals, respectively. The final DMSO concentration was normalized to 0.2% across the plates. Plates were then incubated for 72 hours. CellTiter-Glo® Luminescent Cell Viability Assay (CTG, Promega G7570) reagent was prepared according to the manufacturer's instructions. Plates were equilibrated to room temperature for approximately 30 minutes, 25 μL CTG reagent was added to each well and plates were mixed on an orbital shaker for 10 minutes to allow for cell lysis. After further incubation for 20 minutes at room temperature, the clear bottoms of the plates were pasted with white back seal and luminescence was read on an EnVision plate reader (measurement time 0.1 seconds).
Experimental for DOHH-2 cell line: as §4, §5
Experimental for KMS-34 cell line: as §4, §5
Experimental for MM.1S cell line: as §4, §5
Experimental for NCI-H1836 cell line: as §4, §5
Experimental for NCI-H1876 cell line: as §4, §5
Experimental for NCI-H209 cell line: as §4, §5
Experimental for NCI-H526 cell line: as §4, §5
Experimental for NCI-H69 cell line: as §4, §5
Experimental for OPM-2 cell line: as §4, §5
Experimental for RAJI cell line: as §4, §5
Experimental for RPMI 8226 cell line: as §4, §5
Experimental for SU-DHL-6 cell line: as §4, §5
Experimental for U266B1 cell line: as §4, §5
Experimental for WSU-DLCL2 cell line: as §4, §5

On to `CO[C@H]1C[C@@H]2CC[C@@H](C)[C@@](O)(O2)C(=O)C(=O)N2CCCC[C@H]2C(=O)O[C@H]([C@H](C)C[C@@H]2CC[C@@H](OCCO)[C@H](OC)C2)CC(=O)[C@H](C)/C=C(\C)[C@@H](O)[C@@H](OC)C(=O)[C@H](C)C[C@H](C)/C=C/C=C/C=C/1C` [Everolimus, (1R,9S,12S,15R,16E,18R,19R,21R,23S,24E,26E,28E,30S,32S,35R)-1,18-dihydroxy-12-[(2R)-1-[(1S,3R,4R)-4-(2-hydroxyethoxy)-3-methoxycyclohexyl]propan-2-yl]-19,30-dimethoxy-15,17,21,23,29,35-hexamethyl-11,36-dioxa-4-azatricyclo[30.3.1.0^4,9]hexatriaconta-16,24,26,28-tetraene-2,3,10,14,20-pentone], for which the “antitumor effect vs vehicle (tumor volume)” value in the data set on MCF7 xenografts (day 28, ANOVA with post hoc Tukey's test, everolimus 2 mg/kg, p.o. qd) is “statistically significant antitumor effects”; in the data set on CAL51 xenografts (day 21, ANOVA with post hoc Tukey's test, everolimus 2 mg/kg, p.o. qd), “did not significantly impede tumor growth”. Besides, the “Δ TV ratio to vehicle group (A/C, B/C, (AB)/C)” value in the data set with MCF7 xenografts (day 28, Clarke method, everolimus 2 mg/kg, p.o. qd) was determined as 0.26; with CAL51 xenografts (day 21, Clarke method, everolimus 2 mg/kg, p.o. qd), 0.87. For the same compound, the “Δ TV (delta tumor volume)” value is 164 mm3 with MCF7 xenografts (day 28, everolimus 2 mg/kg, combination 2 + 10 mg/kg, p.o. qd for 28 days, average of four tumors) and 491 mm3 in the data set on CAL51 xenografts (day 21, everolimus 2 mg/kg, combination 2 + 3 mg/kg, p.o. qd for 21 days, average of four tumors). In data set [1], the body weight loss entry is listed as “Body weight loss was caused by everolimus dosing”. The “Mean Loewe synergy score, NCI-H1836” value with NCI-H1836 cell line was determined as 1.58. Moreover, the “Mean Loewe synergy score, NCI-H1876” value in the data set with NCI-H1876 cell line is listed as −0.29. Moreover, the “Mean Loewe synergy score, NCI-H209” value in the data set on NCI-H209 cell line is recorded as 6.14. Further, the “Mean Loewe synergy score, NCI-H526” value with NCI-H526 cell line turned out to be 6.49. The “Mean Loewe synergy score, NCI-H69” value in the data set with NCI-H69 cell line worked out at 9.46. Besides, in the data set with DOHH-2 cell line, the “Mean Loewe synergy score, DOHH2” value is given as 6.48. The “Mean Loewe synergy score, DB” value in the data set on DB cell line was 5.81. Moreover, in the data set with WSU-DLCL2 cell line, the “Mean Loewe synergy score, WSU-DLCL2” value came to 8.29. The “Mean Loewe synergy score, RAJI” value in the data set with RAJI cell line is 14.66. For the same compound, in the data set with SU-DHL-6 cell line, the “Mean Loewe synergy score, SUDHL6” value was 12.05. The “Mean Loewe synergy score, MM.1S” value with MM.1S cell line came out at 6.7. The “Mean Loewe synergy score, OPM-2” value with OPM-2 cell line was determined as 5.3. In the data set with U266B1 cell line, the “Mean Loewe synergy score, U266B1” value stood at 4.16. In the data set on RPMI 8226 cell line, the “Mean Loewe synergy score, RPMI 8226” value is reported as 20.75. Moreover, the “Mean Loewe synergy score, KMS-34” value in the data set on KMS-34 cell line is on record as 16.19.

The values are drawn from patent US20260166045A1, “COMBINATION THERAPY COMPRISING GSPT1-DIRECTED MOLECULAR GLUE DEGRADERS AND PI3K/AKT/mTOR PATHWAY INHIBITORS” (Monte Rosa Therapeutics, Inc., priority 2022, published 2026).
